Laboratory results published in ChEMBL document CHEMBL5032531, “Hypocholesterolemic Efficacy of Secoisolariciresinol Diglucoside and Its Polymer in Rat” (J Nat Prod, 2021).

How the values were obtained:
[1] = test system: Rattus norvegicus; test: Effect on liver weight in Wistar rat model with high cholesterol diet at 6 mg/kg, po qd measured after 23 days; format: ADME, organism-based; conditions: in vivo, 552 h, time 23 day
[2] = test system: Rattus norvegicus; test: Hypocholesterolemic activity in Wistar rat model with high cholesterol diet assessed as amount of Triglycerides in serum at 6 mg/kg, po qd measured after 23 days by microplate reader assay relative to control; format: functional; conditions: time 23 day
[3] = test system: Rattus norvegicus; test: Effect on body weight gain in Wistar rat model with high cholesterol diet at 6 mg/kg, po qd measured after 23 days relative to control; format: ADME, organism-based; conditions: in vivo, 552 h, time 23 day
[4] = test system: Rattus norvegicus; test: Hypocholesterolemic activity in Wistar rat model with high cholesterol diet assessed as amount of LDL-C in serum at 6 mg/kg, po qd measured after 23 days by microplate reader assay relative to control; format: functional; conditions: time 23 day
[5] = test system: Rattus norvegicus; test: Hypocholesterolemic activity in Wistar rat model with high cholesterol diet assessed as reduction of steatosis at 6 mg/kg, po qd measured after 23 days by H and E staining assay relative to control; format: functional; set-up: scale not given: the % may be the effect or the level left; conditions: time 23 day
[6] = test system: Rattus norvegicus; test: Hypocholesterolemic activity in Wistar rat model with high cholesterol diet assessed as amount of HDL-C in serum at 6 mg/kg, po qd measured after 23 days by microplate reader assay relative to control; format: functional; conditions: time 23 day
[7] = test system: Rattus norvegicus; test: Effect on Wistar rat model with high cholesterol diet assessed as ratio of liver weight to body weight at 6 mg/kg, po qd measured after 23 days; format: ADME, organism-based; conditions: in vivo, 552 h, time 23 day
[8] = test system: Rattus norvegicus; test: Hypocholesterolemic activity in Wistar rat model with high cholesterol diet assessed as reduction of steatosis at 6 mg/kg, po qd measured after 23 days by H and E staining assay; format: functional; conditions: time 23 day
[9] = test system: Rattus norvegicus; test: Effect on body weight in Wistar rat model with high cholesterol diet at 6 mg/kg, po qd measured after 23 days; format: ADME, organism-based; conditions: in vivo, 552 h, time 23 day
[10] = test system: Rattus norvegicus; test: Hypocholesterolemic activity in Wistar rat model with high cholesterol diet assessed as liver NAFLD activity score at 6 mg/kg, po qd measured after 23 days by H and E staining assay relative to control; format: functional; conditions: time 23 day
[11] = test system: Rattus norvegicus; test: Hypocholesterolemic activity in Wistar rat model with high cholesterol diet assessed as reduction in liver NAFLD activity score at 6 mg/kg, po qd measured after 23 days by H and E staining assay; format: functional; conditions: time 23 day
[12] = test system: Rattus norvegicus; test: Hypocholesterolemic activity in Wistar rat model with high cholesterol diet assessed as reduction in liver lobular inflammation at 6 mg/kg, po qd measured after 23 days by H and E staining assay; format: functional; conditions: time 23 day
[13] = test system: Rattus norvegicus; test: Hypocholesterolemic activity in Wistar rat model with high cholesterol diet assessed as amount of Total cholesterol in serum at 6 mg/kg, po qd measured after 23 days by microplate reader assay relative to control; format: functional; conditions: time 23 day

COc1cc(C[C@H](CO[C@@H]2O[C@H](CO)[C@@H](O)[C@H](O)[C@H]2O)[C@@H](CO[C@@H]2O[C@H](CO)[C@@H](O)[C@H](O)[C@H]2O)Cc2ccc(O)c(OC)c2)ccc1O [(+)-SECOISOLARICIRESINOLDIGLUCOSIDE] was tested, and the Activity [1] was 10.4 g, the Activity [2] was 15% and the Activity [3] was 32%. For the same molecule, the Activity [4] was 14%, the Activity [5] was 22.2% and the Activity [6] was 24%. For the same molecule, the Activity [7] was 31.5 g/kg, the Activity [8] was 1.4 and the Activity [9] was 330 g. The Activity [10] was 14.3%, the Activity [11] was 2.4 and the Activity [12] was 1. The Activity [13] was 10%.
